Experimental findings from patent US7563935B2, “Crystal forms of astaxanthin” (Phares Pharmaceutical Research N.V. et al., priority 2005, dated 2009) are described below.

Molecules are shown by their SMILES.

Holding throughout (format): physicochemical
Series [1] in a line: Stability of the crystal in the dry form.
Series [2] can be described thus: Solubility and rate of dissolution in organo-solvents or oils (comparison of crystal forms). The settings on record: Form I vs Form II.
Series [3] in a line: Solubility profile in dichloromethane. As to conditions: 20° C.-25° C.

For `CC1=C(/C=C/C(C)=C/C=C/C(C)=C/C=C/C=C(C)/C=C/C=C(C)/C=C/C2=C(C)C(=O)C(O)CC2(C)C)C(C)(C)CC(O)C1=O` (stereo not drawn) [Crystal Form I, 3,3′-dihydroxy-β,β-carotene-4,4′-dione], in series [1], the stability entry is given as “stable in the dry form”. Moreover, in series [2], the “rate of dissolution in organo-solvents or oils relative to the other crystal form” value is “higher” and the “solubility in organo-solvents or oils relative to the other crystal form” value is given as “higher solubility”. Besides, the “solubility profile in dichloromethane” value in series [3] is 35 to 45 g/L.
As for `CC1=C(/C=C/C(C)=C/C=C/C(C)=C/C=C/C=C(C)/C=C/C=C(C)/C=C/C2=C(C)C(=O)C(O)CC2(C)C)C(C)(C)CC(O)C1=O` (stereo not drawn) [Crystal Form II, 3,3′-dihydroxy-β,β-carotene-4,4′-dione], in series [2], the “solubility in organo-solvents or oils relative to the other crystal form” value is on record as “lower solubility”. For the same compound, in series [3], the “solubility profile in dichloromethane” value is 10-30 g/l.
